Experimental data from patent publication US8486968B2, “Compounds” (Boehringer Ingelheim International GmbH, priority 2010, dated 2013).

Legend:
mPGES-1 [1] = target: T1, mPGES-1 (Homo sapiens, UniProt O14684); experiment: mPGES-1 enzyme assay (HTRF detection of PGE2); type: biochemical; parameters: made in house; host or cells: Rosetta E. coli (membrane/microsome fraction)
T1 sequence (O14684 1-152): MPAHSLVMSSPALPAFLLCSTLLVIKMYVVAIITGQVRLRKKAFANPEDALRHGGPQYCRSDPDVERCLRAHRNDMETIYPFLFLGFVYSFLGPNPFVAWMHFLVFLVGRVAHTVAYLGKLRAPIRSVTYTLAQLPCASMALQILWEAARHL
Experimental: Microsomes from Rosetta E. coli bacteria expressing recombinant human mPGES-1 can be derived as described below:
Inoculate 5 ml LB with Ampicilin (50 μg/ml) and Chloramphenicol (34 μg/ml) with bacteria from freeze culture. Incubate 8 h at 37° C. with 200 rpm. Thereafter, inoculate 500-1000 ml LB containing Amp and Chloro with the 5 ml on culture and grow to OD640 of 0.8-1.0. Chill the culture to +4° C. before induction. Induce the culture with IPTG at a final concentration of 400 μM. Express the protein at room temp 18-23° C. with 200 rpm shaking over night.
The following steps can be performed on the following day: • 1. Spin down the cells in 250 ml centrifuge flasks for 15 min at 7000 rpm (Beckmann Coulte Avanti J-E centrifuge) • 2. Dissolve the pellet from 250 ml culture in 12.5 ml homogenization buffer • 3. (15 mM Tris-HCL pH8, 1 mM EDTA pH8, […], 2.5 mM GSH, 1 Tablet Protease inhibitor per 50 ml buffer) • 4. Disintegrate the cells by sonication, 5×10 seconds at 48% amplitude of a 750 W sonifier • 5. Add 2.5 ml MgCl2 (100 mM) and DNase 12.5 μl (0.8 mg/ml) and incubate on ice for 30 min • 6. Spin down the bacteria debris and save the supernatant, 7000 rpm for 15 min • 7. Isolate the protein containing membranes in the supernatant by ultracentrifugation 120000×g for 2 hour at 4° C. (Sorvall T880 rotor). • 8. Discard the supernatant and dissolve the pellet in 20 mM Potassium phosphate buffer pH 7.4 (KH2PO4 and K2HPO4) buffer by sonication (5×10 s, 30% of a 50 W sonifier) and aliquot the enzyme and store aliquots at −80° C.
Before each experiment is performed an aliquot of the enzyme is thawed and it can then be dissolved in 0.1 M Potassium phosphate buffer pH7.4 (KH2PO4 and K2HPO4) buffer containing 2.5 mM GSH.
The aim of this assay is the determine the affinity of a test compound for the mPGES-1 enzyme.
47 μl of recombinant human mPGES-1 (˜0.5 μg protein/well) containing microsomal suspension in a buffer containing GSH, (2.5 mmol/L L-Glutathione reduced, dissolved in 0.1 mol/L Phosphat Buffer pH 7.4) is dispensed in a 384-well plate and thereafter 1 μl of the test compound(s) is/are added and incubated for 25 minutes at room temperature. The enzyme reaction is started by the addition of 2 μl PGH2 (final conc. 2 μM) dissolved in water-free Diglyme. After 60 seconds the reaction is terminated by addition of a stop solution containing FeCl2 (10 μL 0.074 mol/l FeCl2). The samples are diluted between 1:25 in PBS (Phosphate Buffered Saline). 10 μl of the diluted samples are transferred to 384-well low volume plate. In order to quantify the amount of PGE2 that has been formed, a homogenous time resolved fluorescent (HTRF) detecting of PGE2 has been performed using a commercially available kit from Cisbio according to the manufactures recommendation. This HTRF-based assay has been described in detail (see: Goedken et al., J Biomol Screen, 2008, 13(7), 619-625). Briefly, the diluted samples are mixed with 5 μl PGE2-d2 conjungate and 5 μl anti-PGE2 cryptate conjungate. After an incubation period of the plates over night, the fluorescence is measured by the use of an appropriate microplate reader.
The fluorescence of Europium cryptate (maxex=307 nm, maxem=620 nm) and d2-PGE2 (maxex=620 nm, maxem=665 nm) are measured.
The extent of the specific HTRF is measured as a ratio of the emission intensity at 665 nm vs. that at 620 nm at an excitation puls of 320 nm. The quantification plate contains also wells with different concentrations of PGE2 as calibration curve for the calculation of the PGE2 concentrations from the HTRF ratio values.
From all mPGES enzyme assay the background is subtracted and the IC50 is calculated over a nonlinear regression with conventional software.

mPGES-1 [2] = target: T1, mPGES-1; experiment: A549 cell-based assay (PGE2 formation, IL-1β stimulated, 50% human serum); parameters: host or cells: A549 cells
Experimental: Although the enzymatic assay is a high throughput assay the disadvantage is that it uses a recombinant protein which is not in its natural environment. Accordingly a cellular assay was established in which a cell line of human origin (A549) expressing the mPGES-1 protein was used. In addition in order to mimic the situation in humans in which compounds can be bound to plasma proteins 50% human serum is added in the assay. By having the combination of testing mPGES-1 in a cellular environment and the presence of 50% human serum this assay has a higher relevance to judge the therapeutic potential of a mPGES-inhibitor than the pure enzyme assay.
A549 cells (ATCC: CCL-185) are grown to about 90% confluence in F-12K Nutrient Mixture (Kaighn's Mod. Gibco) containing 10% FBS in a humified incubator at 37° C. and 5% CO2. Cells were detached using Trypsin-EDTA. A549 cells were seeded in a 384-well collagene plate at a density of 7000 cells/well (50 μl) in F-12 medium containing 1% Penicillin-Streptomycin and 50% human serum. The cells were allowed to attach for 3-4 h. After that the cells were incubated for 20-24 h in F-12k medium supplemented with 50% human serum, 1% Penicillin-Streptomycin and containing IL-1β at a final concentration of 5 ng/ml as well as 10 nM arachidonic acid in the presence of a vehicle or a test compound. The total volume is 100 μl.
Concentrations of PGE2 in the cell free medium (10 μl) were measured using a commercially available HTRF kit from Cisbio (as described above). The PGE2 formation in the absence of test compound was taken as 100%.
IC50 values were derived from at 6-8 point titrations using conventional software.

[3] = recombinant human mPGES-1 microsomes, PGH2 2 μM, Table A, read-out: mPGES-1 inhibitory effect, IC50, enzyme assay
[4] = A549 cells, IL-1β 5 ng/ml, 20-24 h, Table B, read-out: mPGES-1 inhibitory effect, IC50, cell assay
[5] = Table C comparison of enzym and cell IC50, read-out: Enzym IC50
[6] = Table C comparison of enzym and cell IC50, A549 cells, read-out: Cell IC50

CC(C)(C)C(=O)NCc1ccc(Cl)c(Nc2nc3cc(C(=O)N[C@H]4CC[C@H](C(F)(F)F)CC4)c(N4CCC(C(F)(F)F)CC4)nc3n2CC(N)=O)c1Cl [Example 28]
melting point: 189 to 191 °C
IC50 (mPGES-1 [1]; [3]): 1 nM
IC50 (mPGES-1 [2]; [4]): 3 nM

CN(CC(F)F)c1nc2[nH]c(Nc3c(Cl)ccc(CNC(=O)C(C)(C)C)c3Cl)nc2cc1C(=O)NC1CCC(F)(F)CC1 [Example 10]
IC50 (mPGES-1 [1]; [3]): 1 nM
IC50 (mPGES-1 [2]; [4]): 8 nM

CN(CC(F)F)c1nc2[nH]c(Nc3c(Cl)ccc(CNC(=O)C(C)(C)C)c3Cl)nc2cc1C(=O)N[C@H]1CC[C@H](C(F)(F)F)CC1 [Example 4]
IC50 (mPGES-1 [1]; [3]): 1 nM
IC50 (mPGES-1 [2]; [4]): 3 nM

CN(Cc1nccn1C)c1nc2c(cc1C(=O)N[C@H]1CC[C@H](C(F)(F)F)CC1)nc(Nc1c(Cl)ccc(CNC(=O)C(C)(C)C)c1Cl)n2C [Example 16]
IC50 (mPGES-1 [1]; [3]): 3 nM
IC50 (mPGES-1 [2]; [4]): 3 nM

CN(Cc1nncn1C)c1nc2c(cc1C(=O)N[C@H]1CC[C@H](C(F)(F)F)CC1)nc(Nc1c(Cl)ccc(CNC(=O)C(C)(C)C)c1Cl)n2C [Example 21]
IC50 (mPGES-1 [1]; [3]): 4 nM
IC50 (mPGES-1 [2]; [4]): 90 nM

Cn1c(Nc2c(Cl)ccc(CNC(=O)C(C)(C)C)c2Cl)nc2cc(C(=O)NCC3CC3)c(N3CCC(C(F)(F)F)CC3)nc21 [Example 46]
IC50 (mPGES-1 [1]; [3]): < 1 nM
IC50 (mPGES-1 [2]; [4]): 8 nM

CC(C)(C)C(=O)NCc1ccc(Cl)c(Nc2nc3cc(C(=O)N[C@H]4CC[C@H](C(F)(F)F)CC4)c(N4CC5CC5C4)nc3[nH]2)c1Cl (stereo partly drawn) [Example 12]
IC50 (mPGES-1 [1]; [3]): 2 nM
IC50 (mPGES-1 [2]; [4]): 2 nM

Cn1c(Nc2c(Cl)ccc(CNC(=O)C(C)(C)C)c2Cl)nc2cc(C(=O)NCc3ccc(F)cc3C(F)(F)F)c(N3CCC(C(F)(F)F)CC3)nc21 [Example 38]
IC50 (mPGES-1 [1]; [3]): 2 nM
IC50 (mPGES-1 [2]; [4]): 16 nM

Cn1c(Nc2cc(CNC(=O)C3(C(F)(F)F)CC3)ccc2Cl)nc2cc(C(=O)N[C@H]3CC[C@H](C(F)(F)F)CC3)c(N3CCC(C(F)(F)F)CC3)nc21 [Example 1, N-(trans-4-Trifluoromethyl-cyclohexyl)-2-{2-chloro-5-[(1-trifluoromethyl-cyclopropyl-carbonylamino)methyl]-phenylamino}-5-[4-trifluoromethyl-piperidinyl]-3-methyl-3H-imidazo[4,5-b]pyridine-6-carboxamide]
IC50 (mPGES-1 [1]; [3]): 5 nM
IC50 (mPGES-1 [2]; [4]): 7 nM

Cn1c(Nc2c(Cl)ccc(CNC(=O)C(C)(C)C)c2Cl)nc2cc(C(=O)N[C@H]3CC[C@H](C(F)(F)F)CC3)c(N3CCC(F)CC3)nc21 [Example 2, N-(trans-4-Trifluoromethyl-cyclohexyl)-2-{2,6-dichloro-3-[(2,2-dimethyl-propionylamino)-methyl]-phenylamino}-5-[-fluoro-piperidinyl]-3-methyl-3H-imidazo[4,5-b]pyridine-6-carboxamide]
IC50 (mPGES-1 [1]; [3]): 8 nM
IC50 (mPGES-1 [2]; [4]): 2 nM

CC(NC(=O)c1cc2nc(Nc3c(Cl)ccc(CNC(=O)C(C)(C)C)c3Cl)n(C)c2nc1N1CCC(C(F)(F)F)CC1)c1cccs1 (stereo not drawn) [Example 45]
IC50 (mPGES-1 [1]; [3]): 4 nM
IC50 (mPGES-1 [2]; [4]): 12 nM

CN(c1nc2c(cc1C(=O)N[C@H]1CC[C@H](C(F)(F)F)CC1)nc(Nc1c(Cl)ccc(CNC(=O)C(C)(C)C)c1Cl)n2C)C1COC1 [Example 20]
IC50 (mPGES-1 [1]; [3]): 2 nM
IC50 (mPGES-1 [2]; [4]): 3 nM

Cn1c(Nc2c(Cl)ccc(CNC(=O)C(C)(C)C(F)(F)F)c2Cl)nc2cc(C(=O)N[C@H]3CC[C@H](C(F)(F)F)CC3)c(N3CC[C@@H](F)C3)nc21 [Example 19]
IC50 (mPGES-1 [1]; [3]): 4 nM
IC50 (mPGES-1 [2]; [4]): 6 nM

Cn1c(Nc2c(Cl)ccc(CNC(=O)C(C)(C)C)c2Cl)nc2cc(C(=O)N[C@H]3CC[C@H](C(F)(F)F)CC3)c(N3CC[C@@H](F)C3)nc21 [Example 18]
IC50 (mPGES-1 [1]; [3]): 2 nM
IC50 (mPGES-1 [2]; [4]): 2 nM

CC(C)(C)C(=O)NCc1ccc(Cl)c(Nc2nc3cc(C(=O)N[C@H]4CC[C@H](C(F)(F)F)CC4)c(N4CC[C@@H](F)C4)nc3[nH]2)c1Cl [Example 7]
IC50 (mPGES-1 [1]; [3]): 4 nM
IC50 (mPGES-1 [2]; [4]): 11 nM

Cn1c(Nc2c(Cl)ccc(CNC(=O)C(C)(C)C)c2Cl)nc2cc(C(=O)N[C@H](c3ccccc3)C(F)(F)F)c(N3CCC(C(F)(F)F)CC3)nc21 [Example 36]
IC50 (mPGES-1 [1]; [3]): 2 nM
IC50 (mPGES-1 [2]; [4]): 6 nM

Cn1c(Nc2c(Cl)ccc(CNC(=O)C(C)(C)C)c2Cl)nc2cc(C(=O)NCC(F)(F)C(F)(F)F)c(N3CCC(C(F)(F)F)CC3)nc21 [Example 34]
IC50 (mPGES-1 [1]; [3]): 2 nM
IC50 (mPGES-1 [2]; [4]): 10 nM

Cn1c(Nc2c(Cl)cc(F)cc2Cl)nc2cc(C(=O)N[C@H]3CC[C@H](C(F)(F)F)CC3)c(OCC(F)F)nc21 [reference compound]
IC50 (mPGES-1 [1]; [5]): 4 nM
IC50 (mPGES-1 [2]; [6]): 161 nM

CN(CC1(C)COC1)c1nc2c(cc1C(=O)N[C@H]1CC[C@H](C(F)(F)F)CC1)nc(Nc1c(Cl)ccc(CNC(=O)C(C)(C)C)c1Cl)n2C [Example 22]
IC50 (mPGES-1 [1]; [3]): 3 nM
IC50 (mPGES-1 [2]; [4]): 15 nM

O=C(N[C@H]1CC[C@H](C(F)(F)F)CC1)c1cc2nc(Nc3c(Cl)cc(F)cc3Cl)[nH]c2nc1OCC(F)(F)F [reference compound]
IC50 (mPGES-1 [1]; [5]): 2 nM
IC50 (mPGES-1 [2]; [6]): 43 nM

CC(C)(C)C(=O)NCc1cc(F)c(Cl)c(Nc2nc3cc(C(=O)N[C@H]4CC[C@H](C(F)(F)F)CC4)c(N4CCC(F)CC4)nc3[nH]2)c1Cl [Example 15, N-(trans-4-Trifluoromethyl-cyclohexyl)-2-{2,6-dichloro-5-fluoro-3-[(2,2-dimethyl-propionylamino)-methyl]-phenylamino}-5-[4-fluoro-piperidinyl]-3H-imidazo[4,5-b]pyridine-6-carboxamide]
IC50 (mPGES-1 [1]; [3]): 2 nM
IC50 (mPGES-1 [2]; [4]): 10 nM

CN(CC(F)F)c1nc2[nH]c(Nc3c(Cl)ccc(CNC(=O)C(C)(C)C)c3Cl)nc2cc1C(=O)NCC(F)F [Example 11]
IC50 (mPGES-1 [1]; [3]): 10 nM
IC50 (mPGES-1 [2]; [4]): 47 nM
